These are literature values, as cited in patent US20130129827A1, “EXTENDED RELEASE PHARMACEUTICAL COMPOSITIONS OF PALIPERIDONE AND PROCESSES OF PREPARATION THEREOF” (RANBAXY LABORATORIES LIMITED, priority 2009, published 2013).

For this data set the following is noted: background statement, species not given.

As to `Cc1nc2n(c(=O)c1CCN1CCC(c3noc4cc(F)ccc34)CC1)CCCC2O` (racemic) [Paliperidone, (±)-3-[2-[4-(6-fluoro-1,2-benzisoxazol-3-yl)-1-piperidinyl]ethyl]-6,7,8,9-tetrahydro-9-hydroxy-2-methyl-4H-pyrido[1,2-a]pyrimidin-4-one], the half-life result was “about a day”.
